From publication PMC6759624, “Unraveling Heparan Sulfate Proteoglycan Binding Motif for Cancer Cell Selectivity” (Frontiers in Oncology, 2019)
“Also recorded” adds a separate entry of the source.

Key:
[1] = system: HT-29, PANC-1, MCF-7, and MDA-MB-231 cells; test: NT4 cell binding versus sulfatase expression in cell panel; assay type: cell-based, human; settings: SULF-1 and SULF-2 expression (RT-PCR; SULF-1 also Western blot) versus flow cytometry binding
Method: PANC-1 human pancreas adenocarcinoma, HT-29 human colon adenocarcinoma, and MCF-7 and MDA-MB-231 human breast adenocarcinoma cells were grown in the recommended American Type Culture Collection (ATCC) media, supplemented with 10% fetal calf serum, 200 μg/ml glutamine, 100 μg/ml streptomycin, 60 μg/ml penicillin, and maintained at 37°C, 5% CO2. Cell lines were purchased from ATCC, and cell profiling was analyzed to authenticate human cell lines (BMR Genomics). All experiments were performed using 2 × 10^5 cells in 96-well U-bottom plates. All dilutions were performed in phosphate-buffered saline (PBS), containing 5 mM EDTA and 1% bovine serum albumin (BSA). […] P values were calculated using a two-tailed Student t-test and GraphPad Prism 5.0 software. […] RNA was quantified by spectrophotometry at 260 and 280 nm and verified by agarose gel electrophoresis. The same quantity of RNA for every cell line was loaded on the gel. […] Signals were detected using Image LAS4010 (GE Healthcare). […] P values were calculated using a one-tailed Student t-test and GraphPad Prism 5.0 software. […] Signals were detected using Image LAS4010 (GE Healthcare). […] P values were calculated using a parametric, unpaired Student t-test, and GraphPad Prism 5.0 software.

cancer cells = settings: ref [20]; cited from earlier work
Description: NT4 is already known to have major effects on cancer cells, such as inhibition of migration and invasion of ECM induced by FGF ([20]).

[2] = system: PANC-1 human pancreas adenocarcinoma; test: NT4 binding to cells by flow cytometry; assay type: cell-based; settings: 1 μM NT4-biotin
Method: (§1) PANC-1 human pancreas adenocarcinoma, HT-29 human colon adenocarcinoma, and MCF-7 and MDA-MB-231 human breast adenocarcinoma cells were grown in the recommended American Type Culture Collection (ATCC) media, supplemented with 10% fetal calf serum, 200 μg/ml glutamine, 100 μg/ml streptomycin, 60 μg/ml penicillin, and maintained at 37°C, 5% CO2. Cell lines were purchased from ATCC, and cell profiling was analyzed to authenticate human cell lines (BMR Genomics).
(§2) All experiments were performed using 2 × 10^5 cells in 96-well U-bottom plates. All dilutions were performed in phosphate-buffered saline (PBS), containing 5 mM EDTA and 1% bovine serum albumin (BSA).
(§3) Cells were incubated with 1 μM NT4-biotin for 30 min at room temperature and then incubated with 1 μg/ml streptavidin–fluorescein isothiocyanate (FITC). For heparinase treatment, cells were incubated for 1 h at 37°C on the plates with 0.03 IU/ml heparinase I/III blend (Sigma Aldrich), and then harvested and incubated with the same concentration of heparinase in suspension for an additional hour at 37°C before NT4 staining. All experiments were repeated two times. P values were calculated using a two-tailed Student t-test and GraphPad Prism 5.0 software.

[3] = system: HT-29 human colon adenocarcinoma; test: NT4 binding to cells by flow cytometry; assay type: cell-based; settings: 1 μM NT4-biotin
Method: as §1, §2, §3

[4] = system: MDA-MB-231 human breast adenocarcinoma; test: NT4 binding to cells by flow cytometry; assay type: cell-based; settings: heparinase I/III blend 0.03 IU/ml, 1 h + 1 h at 37°C, 1 μM NT4-biotin, 30 min, room temperature, streptavidin–FITC, repeated two times
Method: as §1, §2, §3

[5] = system: MCF-7 human breast adenocarcinoma; test: NT4 binding to cells by flow cytometry; assay type: cell-based; settings: heparinase I/III blend 0.03 IU/ml, 1 h + 1 h at 37°C, 1 μM NT4-biotin, 30 min, room temperature, streptavidin–FITC, repeated two times
Method: as §1, §2, §3

(pyELYENKPRRPYIL)4K2K-beta-Ala [NT4]
correlation of NT4 binding with sulfatase expression [1]: inversely correlated with sulfatase expression; also recorded: inversely correlated with expression of sulfatases
effect on migration and invasion of ECM induced by FGF (cancer cells): inhibition
NT4 cell binding relative to other cell lines ([2]; PANC-1 (low sulfatase expression) versus MCF-7 and MDA-MB-231, flow cytometry): bind NT4 better than the others; also recorded: higher in cell lines with lower expression of sulfatases
NT4 binding after heparinase treatment ([2]; PANC-1, heparinase I/III blend 0.03 IU/ml, 1 h + 1 h at 37°C, 30 min, room temperature, streptavidin–FITC, repeated two times): much lower than to control cells
NT4 cell binding relative to other cell lines ([3]; HT-29 (low sulfatase expression) versus MCF-7 and MDA-MB-231, flow cytometry): bind NT4 better than the others; also recorded: higher in cell lines with lower expression of sulfatases
NT4 binding after heparinase treatment ([3]; HT-29, heparinase I/III blend 0.03 IU/ml, 1 h + 1 h at 37°C, 30 min, room temperature, streptavidin–FITC, repeated two times): much lower than to control cells
NT4 binding after heparinase treatment [4]: much lower than to control cells
NT4 binding after heparinase treatment [5]: much lower than to control cells
